# In patent US20090012103A1, “SUBSTITUTED HETEROCYCLIC COMPOUNDS” (priority 2007, published 2009):
# Target: wild-type human cardiac sodium channel, hNav1.5 (Homo sapiens, UniProt Q14524)
# Assay: Late INa screening assay (late sodium current, PatchXpress whole cell patch clamp)
# Format: cell-based
# Conditions: compound at 10 μM; read-out: Late INa % blk
# wild-type human cardiac sodium channel, hNav1.5, sequence (Q14524 whole entry): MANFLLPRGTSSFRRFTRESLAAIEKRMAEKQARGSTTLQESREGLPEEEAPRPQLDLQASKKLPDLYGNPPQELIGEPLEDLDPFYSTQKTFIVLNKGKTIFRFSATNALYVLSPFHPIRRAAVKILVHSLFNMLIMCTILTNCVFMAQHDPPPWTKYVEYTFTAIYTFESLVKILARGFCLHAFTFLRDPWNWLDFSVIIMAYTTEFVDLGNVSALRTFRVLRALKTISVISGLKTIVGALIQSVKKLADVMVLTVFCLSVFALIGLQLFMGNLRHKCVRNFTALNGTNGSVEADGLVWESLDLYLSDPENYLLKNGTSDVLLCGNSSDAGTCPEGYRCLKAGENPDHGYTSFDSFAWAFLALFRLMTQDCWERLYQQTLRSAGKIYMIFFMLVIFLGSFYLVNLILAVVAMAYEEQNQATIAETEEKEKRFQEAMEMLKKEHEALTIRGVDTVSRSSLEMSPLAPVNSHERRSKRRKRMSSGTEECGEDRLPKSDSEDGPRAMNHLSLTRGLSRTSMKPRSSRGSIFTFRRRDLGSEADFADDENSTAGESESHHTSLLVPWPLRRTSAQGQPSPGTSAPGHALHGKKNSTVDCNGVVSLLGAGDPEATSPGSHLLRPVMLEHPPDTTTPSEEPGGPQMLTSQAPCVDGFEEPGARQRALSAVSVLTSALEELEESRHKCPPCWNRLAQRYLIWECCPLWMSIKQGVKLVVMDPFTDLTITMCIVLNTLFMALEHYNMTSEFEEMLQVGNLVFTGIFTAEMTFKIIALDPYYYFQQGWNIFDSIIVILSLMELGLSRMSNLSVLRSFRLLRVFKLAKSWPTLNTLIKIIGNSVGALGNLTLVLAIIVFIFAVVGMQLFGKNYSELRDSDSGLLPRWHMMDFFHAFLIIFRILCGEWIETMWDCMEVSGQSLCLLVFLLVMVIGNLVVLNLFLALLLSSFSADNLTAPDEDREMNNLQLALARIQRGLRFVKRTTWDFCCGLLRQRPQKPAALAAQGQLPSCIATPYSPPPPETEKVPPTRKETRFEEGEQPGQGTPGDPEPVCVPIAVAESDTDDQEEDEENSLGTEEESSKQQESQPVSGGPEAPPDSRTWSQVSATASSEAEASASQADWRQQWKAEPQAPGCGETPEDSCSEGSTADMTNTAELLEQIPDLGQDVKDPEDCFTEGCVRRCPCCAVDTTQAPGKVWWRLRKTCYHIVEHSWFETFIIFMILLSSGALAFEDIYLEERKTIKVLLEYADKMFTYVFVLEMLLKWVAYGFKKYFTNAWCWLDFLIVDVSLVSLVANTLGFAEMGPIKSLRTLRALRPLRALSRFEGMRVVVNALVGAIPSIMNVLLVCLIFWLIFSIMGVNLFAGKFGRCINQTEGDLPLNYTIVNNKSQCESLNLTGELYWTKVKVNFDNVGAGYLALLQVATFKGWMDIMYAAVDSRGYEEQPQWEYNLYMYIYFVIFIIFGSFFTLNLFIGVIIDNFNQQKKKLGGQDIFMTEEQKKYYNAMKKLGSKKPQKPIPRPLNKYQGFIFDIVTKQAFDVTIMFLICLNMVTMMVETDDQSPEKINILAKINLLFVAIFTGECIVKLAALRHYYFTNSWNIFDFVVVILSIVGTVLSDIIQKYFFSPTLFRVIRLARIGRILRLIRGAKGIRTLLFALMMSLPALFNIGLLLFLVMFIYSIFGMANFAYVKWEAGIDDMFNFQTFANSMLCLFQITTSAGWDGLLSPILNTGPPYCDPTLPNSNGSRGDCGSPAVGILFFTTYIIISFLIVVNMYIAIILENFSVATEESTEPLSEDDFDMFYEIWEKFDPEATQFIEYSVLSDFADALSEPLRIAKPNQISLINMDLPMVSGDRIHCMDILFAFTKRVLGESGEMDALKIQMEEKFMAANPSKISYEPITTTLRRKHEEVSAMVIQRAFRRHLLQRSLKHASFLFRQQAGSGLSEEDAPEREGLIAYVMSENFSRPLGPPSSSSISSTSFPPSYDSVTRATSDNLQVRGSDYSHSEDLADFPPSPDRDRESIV
row,Compound,inhibition at 10 µM [%]
1,"CC1=C(C(=O)OCc2ccccc2)C(c2cccc3ccccc23)n2nnnc2N1CC#N (stereo not shown) [PT-337, benzyl 4-(cyanomethyl)-5-methyl-7-(naphthalen-1-yl)-4,7-dihydrotetrazolo[1,5-a]pyrimidine-6-carboxylate]",30.2
2,"CCOC(=O)C1=C(C)Nc2nnnn2C1c1ccccc1OCc1ccc(C(=O)O)cc1 (stereo not shown) [PT-285, 4-((2-(6-(ethoxycarbonyl)-5-methyl-4,7-dihydrotetrazolo[1,5-a]pyrimidin-7-yl)phenoxy)methyl)benzoic acid]",-2.2
3,"CCOC(=O)C1=C(C)Nc2nnnn2C1c1cccc(Oc2ccc(C(=O)O)cc2)c1 (stereo not shown) [PT-295, 4-(3-(6-(ethoxycarbonyl)-5-methyl-4,7-dihydrotetrazolo[1,5-a]pyrimidin-7-yl)phenoxy)benzoic acid]",7
4,"CCOC(=O)C1=C(C(F)(F)F)Nc2nnnn2C1c1cccc2ccccc12 (stereo not shown) [PT-009, ethyl 7-(naphthalen-1-yl)-5-(trifluoromethyl)-4,7-dihydrotetrazolo[1,5-a]pyrimidine-6-carboxylate]",8.2
5,"COc1cc(Cl)ccc1COC(=O)C1=C(C)Nc2nnnn2C1c1cccc2ccccc12 (stereo not shown) [PT-304, 4-chloro-2-methoxybenzyl 5-methyl-7-(naphthalen-1-yl)-4,7-dihydrotetrazolo[1,5-a]pyrimidine-6-carboxylate]",63
6,"CC1=C(C(=O)NCc2ccccc2)C(c2cccc3ccccc23)n2nnnc2N1 (stereo not shown) [PT-067, N-benzyl-5-methyl-7-(naphthalen-1-yl)-4,7-dihydrotetrazolo[1,5-a]pyrimidine-6-carboxamide]",24.4
7,"COC(=O)C1=C(C)Nc2nnnn2C1c1sc2ccccc2c1Br (stereo not shown) [PT-520, methyl 7-(3-bromobenzo[b]thiophen-2-yl)-5-methyl-4,7-dihydrotetrazolo[1,5-a]pyrimidine-6-carboxylate]",78.4
8,"COC(=O)C1=C(C)Nc2cc(C)nn2C1c1nc(C)cs1 (stereo not shown) [PT-507, methyl 2,5-dimethyl-7-(4-methylthiazol-2-yl)-4,7-dihydropyrazolo[1,5-a]pyrimidine-6-carboxylate]",0.2
9,"COc1ccc(C2C(C(=O)OCc3ccccc3)=C(C)Nc3c(C(=O)O)cnn32)c2ccccc12 (stereo not shown) [PT-312, 6-(benzyloxycarbonyl)-7-(4-methoxynaphthalen-1-yl)-5-methyl-4,7-dihydropyrazolo[1,5-a]pyrimidine-3-carboxylic acid]",5.2
10,"CC1=C(C(=O)OCc2ccccc2)[C@@H](c2ccccc2-c2ccc(C(F)(F)F)cc2)n2nnnc2N1 [PT-236, (R)-benzyl 5-methyl-7-(4′-(trifluoromethyl)biphenyl-2-yl)-4,7-dihydrotetrazolo[1,5-a]pyrimidine-6-carboxylate]",68
11,"CCOC(=O)c1c(C)nc2[nH]ncc2c1-c1ccccc1 [PT-474, ethyl 6-methyl-4-phenyl-1H-pyrazolo[3,4-b]pyridine-5-carboxylate]",22
12,"CCOC(=O)C1=C(C)Nc2nnnn2C1c1c(C)cccc1C (stereo not shown) [PT-487, ethyl 7-(2,6-dimethylphenyl)-5-methyl-4,7-dihydrotetrazolo[1,5-a]pyrimidine-6-carboxylate]",20.9
13,"CC1=C(C(=O)OCc2ccccc2)C(c2ccccc2-c2cnc(N)nc2)n2nnnc2N1 (stereo not shown) [PT-375, benzyl 7-(2-(2-aminopyrimidin-5-yl)phenyl)-5-methyl-4,7-dihydrotetrazolo[1,5-a]pyrimidine-6-carboxylate]",50.7
14,"CCOC(=O)C1=C(C)Nc2[nH]nc(-c3ccc(C)cc3)c2C1c1cccc2ccccc12 (stereo not shown) [PT-073, ethyl 6-methyl-4-(naphthalen-1-yl)-3-p-tolyl-4,7-dihydro-1H-pyrazolo[3,4-b]pyridine-5-carboxylate]",-3.2
15,"CC1=C(c2nnc(C)o2)C(c2cccc3ccccc23)n2nnnc2N1 (stereo not shown) [PT-267, 2-methyl-5-(5-methyl-7-(naphthalen-1-yl)-4,7-dihydrotetrazolo[1,5-a]pyrimidin-6-yl)-1,3,4-oxadiazole]",17
16,"COC(=O)C1=C(C)Nc2cc(C)nn2C1c1cccc2ccccc12 (stereo not shown) [PT-508, methyl 2,5-dimethyl-7-(naphthalen-1-yl)-4,7-dihydropyrazolo[1,5-a]pyrimidine-6-carboxylate]",11.6
17,"CCOC(=O)C1=C(C)Nc2[nH]nc(C)c2C1c1cccs1 (stereo not shown) [PT-443, ethyl 3,6-dimethyl-4-(thiophen-2-yl)-4,7-dihydro-1H-pyrazolo[3,4-b]pyridine-5-carboxylate]",20
18,"CCOC(=O)C1=C(C)NC(C)=C(C(=O)OCC)C1c1cccc(-c2ccccc2)c1 [PT-439, diethyl 4-(biphenyl-3-yl)-2,6-dimethyl-1,4-dihydropyridine-3,5-dicarboxylate]",56.1
19,"CC1=C(c2nnc(-c3ccccc3)o2)C(c2cccc3ccccc23)n2nnnc2N1 (stereo not shown) [PT-203, 2-(5-methyl-7-(naphthalen-1-yl)-4,7-dihydrotetrazolo[1,5-a]pyrimidin-6-yl)-5-phenyl-1,3,4-oxadiazole]",10.9
20,"CCOC(=O)C1=C(C)Nc2nnnn2C1c1sccc1Br (stereo not shown) [PT-498, ethyl 7-(3-bromothiophen-2-yl)-5-methyl-4,7-dihydrotetrazolo[1,5-a]pyrimidine-6-carboxylate]",25.2
21,"CCC(OC(=O)C1=C(C)Nc2nnnn2C1c1cccc2ccccc12)c1ccccc1 (stereo not shown) [PT-063, 1-phenylpropyl 5-methyl-7-(naphthalen-1-yl)-4,7-dihydrotetrazolo[1,5-a]pyrimidine-6-carboxylate]",47.5
22,"CCOC(=O)C1=C(C)Nc2nnnn2C1c1c(Cl)cccc1Cl (stereo not shown) [PT-486, ethyl 7-(2,6-dichlorophenyl)-5-methyl-4,7-dihydrotetrazolo[1,5-a]pyrimidine-6-carboxylate]",30.8
23,"CC1=C(C(=O)OC(C)(C)Cc2ccccc2)C(c2ccccc2Br)c2cn[nH]c2N1 (stereo not shown) [PT-263, 2-methyl-1-phenylpropan-2-yl 4-(2-bromophenyl)-6-methyl-4,7-dihydro-1H-pyrazolo[3,4-b]pyridine-5-carboxylate]",38.8
24,"CC1=C(C(=O)OCc2ccccc2)C(c2ccccc2-c2ccccc2)C2=C(CCCC2=O)N1 (stereo not shown) [PT-336, benzyl 4-(biphenyl-2-yl)-2-methyl-5-oxo-1,4,5,6,7,8-hexahydroquinoline-3-carboxylate]",60.1
25,"CC1=C(C(=O)OCc2ccccc2)C(c2ccc(C#N)cc2)n2nnnc2N1 (stereo not shown) [PT-418, benzyl 7-(4-cyanophenyl)-5-methyl-4,7-dihydrotetrazolo[1,5-a]pyrimidine-6-carboxylate]",42.7
26,"COc1cccc(OCc2ccccc2)c1C1C(C(=O)OCc2ccccc2)=C(C)Nc2nnnn21 (stereo not shown) [PT-382, benzyl 7-(2-(benzyloxy)-6-methoxyphenyl)-5-methyl-4,7-dihydrotetrazolo[1,5-a]pyrimidine-6-carboxylate]",13.9

# Same assay, conditions: read-out: Late INa % blk
row,Compound,inhibition at 10 µM [%]
1,"O=C1OCC2=C1C(c1cccc3ccccc13)c1c(-c3ccco3)n[nH]c1N2 (stereo not shown) [PT-080, 3-(furan-2-yl)-4-(naphthalen-1-yl)-7,8-dihydro-1H-furo[3,4-e]pyrazolo[3,4-b]pyridin-5(4H)-one]",31.9
2,Cc1ccc(-c2n[nH]c3c2C(c2cccc4ccccc24)C2=C(COC2=O)N3)cc1 (stereo not shown) [PT-078],46.3
